Assay results from the supplement of paper PMC10307832.

Experiments:
Experiment in all cases: relative viability (nuclei count vs DMSO), 5 days (fraction); higher = more cells survive
[1] = compound: COc1cc(-c2nn([C@H]3CC[C@H](N4CCN(C(C)=O)CC4)CC3)c3ncnc(N)c23)ccc1NC(=O)c1cc2ccccc2n1C + Nc1nc2[nH]cc(CCc3ccc(C(=O)N[C@@H](CCC(=O)O)C(=O)O)cc3)c2c(=O)[nH]1 [Pemetrexed] (partner 0.2 µM)
In short: (§1)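 Five library-drug doses in √10 steps were combined with a fixed anchor-drug dose, or a single drug was given alone, by pin tool to lung cancer cell lines in 1536-well plates the day after seeding. Nuclei were stained and counted after 5 days. Relative viability is the nuclei count in treated wells over that in vehicle wells, taken as the median of duplicate plates.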

[2] = compound: CO[C@@H]1[C@H](N(C)C(=O)c2ccccc2)C[C@H]2O[C@]1(C)n1c3ccccc3c3c4c(c5c6ccccc6n2c5c31)C(=O)NC4 [Midostaurin] + COc1cc2c(Oc3ccc(NC(=O)C4(C(=O)Nc5ccc(F)cc5)CC4)cc3F)ccnc2cc1OCCCN1CCOCC1 [Foretinib] (partner 0.25 µM)
In short: as §1

[3] = compound: COc1cc(-c2nn([C@H]3CC[C@H](N4CCN(C(C)=O)CC4)CC3)c3ncnc(N)c23)ccc1NC(=O)c1cc2ccccc2n1C + CC(C)C[C@H](NC(=O)[C@H](Cc1ccccc1)NC(=O)c1cnccn1)B(O)O [Bortezomib] (partner 0.002 µM)
In short: as §1

[4] = compound: COc1cc(-c2nn([C@H]3CC[C@H](N4CCN(C(C)=O)CC4)CC3)c3ncnc(N)c23)ccc1NC(=O)c1cc2ccccc2n1C + CS(=O)(=O)CCNCc1ccc(-c2ccc3ncnc(Nc4ccc(OCc5cccc(F)c5)c(Cl)c4)c3c2)o1 [Lapatinib] (partner 2 µM)
In short: as §1

[5] = compound: CO[C@@H]1[C@H](N(C)C(=O)c2ccccc2)C[C@H]2O[C@]1(C)n1c3ccccc3c3c4c(c5c6ccccc6n2c5c31)C(=O)NC4 [Midostaurin] + C[C@@H](Oc1cc(-c2cnn(C3CCNCC3)c2)cnc1N)c1c(Cl)ccc(F)c1Cl [Crizotinib] (partner 1 µM)
In short: as §1

Cell Line	relative viability ([1]; first compound 0.0128 µM)	relative viability ([1]; first compound 0.04048 µM)	relative viability ([1]; first compound 0.128 µM)	relative viability ([1]; first compound 1.28 µM)	relative viability ([2]; first compound 0.01 µM)	relative viability ([2]; first compound 0.03162 µM)	relative viability ([2]; first compound 0.1 µM)	relative viability ([2]; first compound 0.3162 µM)	relative viability ([3]; first compound 0.0128 µM)	relative viability ([3]; first compound 0.04048 µM)	relative viability ([3]; first compound 0.128 µM)	relative viability ([3]; first compound 1.28 µM)	relative viability ([4]; first compound 0.0128 µM)	relative viability ([4]; first compound 0.04048 µM)	relative viability ([4]; first compound 0.128 µM)	relative viability ([4]; first compound 1.28 µM)	relative viability ([5]; first compound 0.01 µM)	relative viability ([5]; first compound 0.03162 µM)	relative viability ([5]; first compound 0.1 µM)	relative viability ([5]; first compound 0.3162 µM)
201T	0.394	0.288	0.316	0.309	1.15	0.988	1.14	1.17	1.14	1.16	1.06	1.03	1.11	1.04	1	0.915	1.07	1.01	1.01	1.05
A549					0.871	0.781	0.939	0.99					0.961	1.02	0.953	1.06	0.796	0.665	0.589	0.26
A-427	0.972	1.07	0.906	0.93	1.06	1.08	0.903	1.03	1.04	0.782	0.935	0.96	1.18	0.944	0.852	0.907	0.949	0.794	0.735	0.707
ABC-1					1.03	1.14	0.828	1.11	0.212	0.32	0.26	0.3	1.26	1.17	1.04	0.891	0.981	1.28	1.12	0.582
BEN	0.686	0.814	0.871	0.664	0.719	0.803	0.966	0.667	0.667	0.765	0.824	0.53	0.588	0.646	0.878	0.401	1.12	0.889	1.17	0.935
CAL-12T	1.39	1.21	1.15	1.12	1.17	0.959	0.733	1.11	1.11	0.943	0.938	0.972	0.615	0.686	0.659	0.384	0.616	0.572	0.646	0.251
COR-L23	0.193	0.206	0.189	0.204	1.03	0.954	0.9	0.892	0.991	1.4	0.873	0.908	0.933	1.2	0.789	0.992	0.653	0.633	0.541	0.464
COR-L 105	1.08	1.11	1.1	0.836	1.04	1.04	0.909	1.09	0.73	0.854	0.657	0.386	0.3	0.327	0.352	0.31	0.835	0.738	0.692	0.698
Calu-6					0.879	0.921	0.89	0.835	1.04	1.05	0.869	0.754	1.08	1.01	0.91	0.875	0.685	0.768	0.859	0.617
ChaGo-K-1	0.258	0.26	0.252	0.237	0.888	0.99	0.785	0.946	0.922	1.13	0.865	0.973					1.09	1.15	1.05	1.03
EBC-1					0.104	0.103	0.112	0.102	0.575	0.554	0.521	0.481	0.203	0.23	0.205	0.19	0.164	0.231	0.197	0.2
EKVX	0.43	0.4	0.373	0.374	0.824	0.76	0.702	0.78	1.07	1.1	0.917	0.401	0.217	0.203	0.189	0.154	1.07	0.988	0.868	0.929
EMC-BAC-2	0.445	0.557	0.426	0.493	0.961	0.828	0.822	0.708	1.03	1.12	1.04	1.12	0.909	0.935	0.842	0.801	0.704	0.754	0.647	0.696
EPLC-272H	0.406	0.338	0.287	0.253	0.822		0.653	0.606	0.993	0.933	0.952	0.902	0.815	0.891	0.997	0.86	0.875	0.998	1.07	0.926
H3255	0.628	0.567	0.578	0.489	0.894	0.793	0.833	0.959	0.92	0.765	0.721	0.779	0.294	0.27	0.238	0.176	0.829	0.718	0.937	0.892
HARA	0.213	0.233	0.216	0.184	0.904	0.887	0.91	0.891	1.12	1.16	1.1	0.803	0.888	0.858	0.563	0.813	0.902	0.977	0.86	0.958
HCC-15	0.227	0.228	0.198	0.225	1.08	0.856	1.04	1.05	1.25	1	0.963	1.11	1.08	0.726	0.87	0.896	0.842	0.829	0.841	0.847
HCC-44	0.719	0.742	0.607	0.687					0.993	0.886	0.897	1.27	1.08	1.21	0.937	1.23	0.747	0.787	0.697	0.627
HCC-78	0.939	0.879	0.889	0.91	0.65	0.532	0.541	0.555	0.547	0.724	0.566	0.43	0.953	0.85	0.673	0.585	0.363	0.288	0.38	0.329

Cell Line	relative viability ([1]; first compound 0.0128 µM)	relative viability ([1]; first compound 0.04048 µM)	relative viability ([1]; first compound 0.128 µM)	relative viability ([1]; first compound 1.28 µM)	relative viability ([2]; first compound 0.01 µM)	relative viability ([2]; first compound 0.03162 µM)	relative viability ([2]; first compound 0.1 µM)	relative viability ([2]; first compound 0.3162 µM)	relative viability ([3]; first compound 0.0128 µM)	relative viability ([3]; first compound 0.04048 µM)	relative viability ([3]; first compound 0.128 µM)	relative viability ([3]; first compound 1.28 µM)	relative viability ([4]; first compound 0.0128 µM)	relative viability ([4]; first compound 0.04048 µM)	relative viability ([4]; first compound 0.128 µM)	relative viability ([4]; first compound 1.28 µM)	relative viability ([5]; first compound 0.01 µM)	relative viability ([5]; first compound 0.03162 µM)	relative viability ([5]; first compound 0.1 µM)	relative viability ([5]; first compound 0.3162 µM)
IA-LM					1.15	0.86	1.23	1.05	0.847	1.07	0.896	0.631	0.83	1.16	0.79	1.15	0.751	0.712	0.606	0.448
LCLC-103H	0.54	0.428	0.47	0.471	0.729	0.661	0.656	0.791	1.16	1.13	1.15	0.99					1.05	1.01	0.982	1.02
LK-2	0.298	0.248	0.27	0.133	1.19	1.36	0.955	1.13					1.09	0.981	0.83	0.777	0.243	0.235	0.233	0.17
NCI-H358	0.188	0.187	0.173	0.166	0.821	0.784	0.706	0.662					0.455	0.391	0.335	0.27	0.528	0.596	0.563	0.292
NCI-H441	0.275	0.306	0.254	0.295	0.808	0.848	0.858	0.693	0.591	0.823	0.665	0.616					0.778	0.807	0.596	0.764
NCI-H522	1	0.939	1.14	0.822																
NCI-H727					1.11	0.932	0.829	0.846	0.834		0.808	1.06	0.804		0.754	0.718	0.861	0.524	0.729	0.459
NCI-H1299					1.07	1.04	1.05	0.976	1.02	1.14	1.06	1.22	0.997	1.11	0.984	1.04	0.929	0.914	0.941	0.86
NCI-H1395	0.819	0.81	0.763	0.59	1.12	1.07	0.992	1.1					0.939	1.09	0.881	0.782				
NCI-H1623					0.995	0.876	0.949	0.941												
NCI-H1648	0.92	0.738	0.857	0.646																
NCI-H1703					0.351	0.316	0.292	0.325	0.286	0.45	0.298	0.235	1.09	0.988	0.842	0.352	0.73	0.569	0.684	0.221
NCI-H1792	0.883	0.913	0.797	0.729					1.03	0.883	0.948	0.67	0.83	0.773	0.883	0.755	0.947	1.02	0.967	1.02
NCI-H1793	1.04	0.771	0.871	0.617	0.674	0.644	0.533	0.369					1.01	0.501	0.434	0.621				
NCI-H1944	0.65	0.589	0.571	0.6	0.893	0.899	0.711	0.853					0.944	0.95	0.777	0.69	1.07	1.08	1	1.1
NCI-H2170	0.267	0.275	0.296	0.253	1.05	0.951	0.477	0.735					0.253	0.283	0.243	0.249	1.18	1.24	1.15	1.29
NCI-H2342	0.762	0.821	0.781	0.771	1.03	0.933	0.961	0.92												
SK-MES-1	1.08	0.994	0.904	0.755	0.927	0.925	0.963	0.781					0.397	0.561	0.443	0.451	0.966	0.929	0.931	0.94
SW 900	0.487	0.489	0.469	0.373	0.876	0.746	0.822	0.763												
